Measurements published in PubChem BioAssay AID330 (DTP/NCI, 2004).
Where “and” joins values, the source holds several entries; their conditions need not be identical. Equal entries are not always repeated. Toxic doses and inconclusive results are not listed. The calls were made as follows: active = survival T/C of 150% or more; inactive = T/C below 125% in these data.

Tested on: P388 leukemia ip, CD2F1 mice, survival T/C
Assay: NCI In Vivo Anticancer Drug Screen. Data for tumor model P388 Leukemia (intraperitoneal) in CD2F1 (CDF1) mice
Details: endpoint: median survival time, higher = longer survival
How it was run: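 Mice carrying the transplanted tumor received test compound or vehicle. Survival was recorded in each group, and the value is the treated-group measurement divided by that of the vehicle-treated control group.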

[1] = dose: 100.0 mg/kg/injection, schedule: Q04DX002 (ip), vehicle: saline with Tween-80
[2] = dose: 200.0 mg/kg/injection, schedule: Q04DX002 (ip), vehicle: saline with Tween-80
[3] = dose: 1.56 mg/kg/injection, schedule: Q01DX009 (ip), vehicle: saline
[4] = dose: 3.12 mg/kg/injection, schedule: Q01DX009 (ip), vehicle: saline
[5] = dose: 50.0 mg/kg/injection, schedule: Q01DX009 (ip), vehicle: saline with Tween-80
[6] = dose: 100.0 mg/kg/injection, schedule: Q01DX009 (ip), vehicle: saline with Tween-80
[7] = dose: 200.0 mg/kg/injection, schedule: Q01DX009 (ip), vehicle: saline with Tween-80
[8] = dose: 60.0 mg/kg/injection, schedule: Q01DX005 (ip), vehicle: saline with Tween-80
[9] = dose: 120.0 mg/kg/injection, schedule: Q01DX005 (ip), vehicle: saline with Tween-80
[10] = dose: 240.0 mg/kg/injection, schedule: Q01DX005 (ip), vehicle: saline with Tween-80
[11] = dose: 50.0 mg/kg/injection, schedule: Q01DX009 (ip), vehicle: saline
[12] = dose: 100.0 mg/kg/injection, schedule: Q01DX009 (ip), vehicle: saline
[13] = dose: 100.0 mg/kg/injection, schedule: Q04DX003 (ip), vehicle: saline
[14] = dose: 200.0 mg/kg/injection, schedule: Q04DX003 (ip), vehicle: saline
[15] = dose: 400.0 mg/kg/injection, schedule: Q04DX003 (ip), vehicle: saline

Measured: T/C

N#CC(CCCCl)(c1ccccc1)c1ccccc1
inactive: dose: 100.0 mg/kg/injection, schedule: Q04DX002 (ip), vehicle: Klucel (hydroxypropylcellulose) (HPC) 107 % of control | dose: 200.0 mg/kg/injection, schedule: Q04DX002 (ip), vehicle: Klucel (hydroxypropylcellulose) (HPC) 108 % of control | dose: 400.0 mg/kg/injection, schedule: Q04DX002 (ip), vehicle: Klucel (hydroxypropylcellulose) (HPC) 108 % of control

c1ccc2c(c1)[nH]c1c2nc2sccn21
inactive: dose: 60.0 mg/kg/injection, schedule: Q01DX005 (ip), vehicle: Klucel (hydroxypropylcellulose) (HPC) 115 % of control | dose: 120.0 mg/kg/injection, schedule: Q01DX005 (ip), vehicle: Klucel (hydroxypropylcellulose) (HPC) 115 % of control | dose: 240.0 mg/kg/injection, schedule: Q01DX005 (ip), vehicle: Klucel (hydroxypropylcellulose) (HPC) 116 % of control

O=C1CSC(c2cccs2)N1CCN1C(=O)CSC1c1cccs1 (stereo unspecified)
inactive: [1] 100 % of control | [2] 96 % of control

CCC[CH2][Sn]([CH2]CCC)([CH2]CCC)[CH2]CC[N+](C)(C)C.CS(=O)(=O)[O-]
inactive: dose: 0.78 mg/kg/injection, schedule: Q01DX009 (ip), vehicle: saline 100 % of control | [3] 101 % of control | [4] 98 % of control

[Cl][Pt+2][Cl].[NH-]C(c1ccccc1)C([NH-])c1ccccc1 (stereo unspecified)
inactive: dose: 1.56 mg/kg/injection, schedule: Q04DX002 (ip), vehicle: saline with Tween-80 112 % of control | dose: 3.12 mg/kg/injection, schedule: Q04DX002 (ip), vehicle: saline with Tween-80 103 % of control | dose: 3.13 mg/kg/injection, schedule: Q04DX002 (ip), vehicle: saline with Tween-80 111 % of control | dose: 6.25 mg/kg/injection, schedule: Q04DX002 (ip), vehicle: saline with Tween-80 117 % of control [middle of 4 runs]

CCOC1=CCCCC1
inactive: dose: 100.0 mg/kg/injection, schedule: Q04DX003 (ip), vehicle: alcohol 100 % of control | dose: 200.0 mg/kg/injection, schedule: Q04DX003 (ip), vehicle: alcohol 100 % of control | dose: 400.0 mg/kg/injection, schedule: Q04DX003 (ip), vehicle: alcohol 104 % of control

CC1=CC(=C2C=CC(=[N+](C)C)C=C2)C=C(C)S1
inactive: dose: 3.12 mg/kg/injection, schedule: Q01DX009 (ip), vehicle: distilled water + Tween-80 + alcohol 109 % of control | dose: 6.25 mg/kg/injection, schedule: Q01DX009 (ip), vehicle: distilled water + Tween-80 + alcohol 119 % of control | dose: 12.5 mg/kg/injection, schedule: Q01DX009 (ip), vehicle: distilled water + Tween-80 + alcohol 120 % of control

CS(=O)(=O)OCc1cc(=O)c(OS(C)(=O)=O)co1
inactive: dose: 50.0 mg/kg/injection, schedule: Q01DX005 (ip), vehicle: saline with Tween-80 108 % of control | dose: 100.0 mg/kg/injection, schedule: Q01DX005 (ip), vehicle: saline with Tween-80 110 % of control | dose: 200.0 mg/kg/injection, schedule: Q01DX005 (ip), vehicle: saline with Tween-80 112 % of control

O=C(N/N=C/c1ccc(F)cc1)c1ccncc1
inactive: [5] 91 % of control | [6] 92 % of control | [7] 90 % of control

COc1nc2c(ccn2C2OCC(OC(C)=O)C(OC(C)=O)C2OC(C)=O)c(=O)n1C (stereo unspecified)
inactive: [8] 100 % of control | [9] 97 % of control | [10] 100 % of control

CCCCCCCN1CCS(=O)(=O)CC1
inactive: dose: 50.0 mg/kg/injection, schedule: Q01DX009 (ip), vehicle: Klucel (hydroxypropylcellulose) (HPC) 93 % of control | dose: 100.0 mg/kg/injection, schedule: Q01DX009 (ip), vehicle: Klucel (hydroxypropylcellulose) (HPC) 98 % of control | dose: 200.0 mg/kg/injection, schedule: Q01DX009 (ip), vehicle: Klucel (hydroxypropylcellulose) (HPC) 97 % of control

C[Si](C)(C)CCCn1cc(F)c(=O)n(CCC[Si](C)(C)C)c1=O
inactive: [8] 104 % of control | [9] 104 % of control | [10] 101 % of control

NCCNCCNCCNCCN (tested in a mixture with another compound)
inactive: dose: 25.0 mg/kg/injection, schedule: Q01DX009 (ip), vehicle: saline 118 % of control | [11] 118 % of control | [12] 100 % of control

COC(=O)CC1C=CC(OC)[C@@]2(C)C(=O)C=C(C)C(=O)[C@@H]12 (stereo partly specified)
inactive: [8] 110 % of control | [9] 106 % of control | [10] 106 % of control

COc1cc(N=Nc2ccc(N=Nc3ccc4cc(S(=O)(=O)O)cc(S(=O)(=O)O)c4c3)c(C)c2)c(C)cc1NC(=O)c1ccc(NC(=O)c2ccc(N)cc2)cc1
inactive: dose: 25.0 mg/kg/injection, schedule: Q01DX005 (ip), vehicle: Klucel (hydroxypropylcellulose) (HPC) 103 % of control and 108 % of control | dose: 50.0 mg/kg/injection, schedule: Q01DX005 (ip), vehicle: Klucel (hydroxypropylcellulose) (HPC) 107 % of control and 111 % of control and 117 % of control | dose: 100.0 mg/kg/injection, schedule: Q01DX005 (ip), vehicle: Klucel (hydroxypropylcellulose) (HPC) 103 % of control and 116 % of control | dose: 200.0 mg/kg/injection, schedule: Q01DX005 (ip), vehicle: Klucel (hydroxypropylcellulose) (HPC) 107 % of control and 112 % of control and 97 % of control

CC(=O)c1c(C)[nH]c(-c2ccccc2)c1NS(=O)(=O)c1ccc(N)cc1
inactive: [8] 98 % of control | [9] 91 % of control

Cc1[nH]c(C)c2ccc(=O)ccc12
inactive: dose: 30.0 mg/kg/injection, schedule: Q01DX005 (ip), vehicle: suspension in saline 101 % of control | dose: 60.0 mg/kg/injection, schedule: Q01DX005 (ip), vehicle: suspension in saline 94 % of control and 97 % of control | dose: 120.0 mg/kg/injection, schedule: Q01DX005 (ip), vehicle: suspension in saline 88 % of control | dose: 240.0 mg/kg/injection, schedule: Q01DX005 (ip), vehicle: suspension in saline 93 % of control

CCCC[NH-].CCCC[NH-].[I][Pt+2][I]
inactive: dose: 0.78 mg/kg/injection, schedule: Q01DX009 (ip), vehicle: other 103 % of control and 120 % of control

C=C1C(=O)C23CC1CC(O)C2C12COC(O)C1C(C)(C)CCC2OC3=O (stereo unspecified)
inactive: dose: 1.25 mg/kg/injection, schedule: Q01DX009 (ip), vehicle: saline with Tween-80 108 % of control | dose: 2.5 mg/kg/injection, schedule: Q01DX009 (ip), vehicle: saline with Tween-80 99 % of control | dose: 5.0 mg/kg/injection, schedule: Q01DX009 (ip), vehicle: saline with Tween-80 102 % of control and 120 % of control | dose: 10.0 mg/kg/injection, schedule: Q01DX009 (ip), vehicle: saline with Tween-80 106 % of control and 115 % of control | dose: 20.0 mg/kg/injection, schedule: Q01DX009 (ip), vehicle: saline with Tween-80 116 % of control and 118 % of control | dose: 40.0 mg/kg/injection, schedule: Q01DX009 (ip), vehicle: saline with Tween-80 118 % of control and 124 % of control | dose: 80.0 mg/kg/injection, schedule: Q01DX009 (ip), vehicle: saline with Tween-80 89 % of control

O=C1NC(=O)C2=C1NCCN2
inactive: [13] 107 % of control | [14] 104 % of control | [15] 99 % of control

O=c1c(CS(=O)(=O)c2ccccc2)c(-c2ccccc2)c1=O
inactive: [1] 104 % of control | [2] 104 % of control | dose: 400.0 mg/kg/injection, schedule: Q04DX002 (ip), vehicle: saline with Tween-80 97 % of control

CN(C)c1ccc(/C=N/NC(=O)C(O)(c2ccccc2)c2ccccc2)cc1
inactive: [8] 102 % of control | [9] 102 % of control | [10] 96 % of control

O=C1OC2CS(=O)CC2O1 (stereo unspecified)
inactive: [5] 104 % of control | [11] 102 % of control | [6] 101 % of control | [12] 101 % of control | [7] 95 % of control | dose: 200.0 mg/kg/injection, schedule: Q01DX009 (ip), vehicle: saline 99 % of control

CNC(=S)N/N=C(C)\C=N/Nc1cccc(Cl)c1
inactive: [13] 92 % of control | [14] 93 % of control | [15] 100 % of control

CC1CC(c2ccc3ccccc3c2)NCCNC(c2ccc3ccccc3c2)CC(C)NCCN1 (stereo unspecified)
inactive: dose: 0.09 mg/kg/injection, schedule: Q01DX009 (ip), vehicle: saline 100 % of control | dose: 0.18 mg/kg/injection, schedule: Q01DX009 (ip), vehicle: saline 103 % of control | dose: 0.36 mg/kg/injection, schedule: Q01DX009 (ip), vehicle: saline 102 % of control | [4] 101 % of control | dose: 12.5 mg/kg/injection, schedule: Q01DX009 (ip), vehicle: saline 101 % of control

CN1C=[N+](C)Cc2nnn(Cc3ccccc3)c21
inactive: [3] 105 % of control | [4] 105 % of control | dose: 6.25 mg/kg/injection, schedule: Q01DX009 (ip), vehicle: saline 100 % of control
